Counter-ions that a name gives are not always drawn.

We go through 29 compounds from US10858335B2 (Rigel Pharmaceuticals, Inc., priority 2014, dated 2020).

One assay relates to GDF8 signaling (p-SMAD-3 (Ser423/425)). As to the kind of experiment: AlphaScreen SureFire SMAD3 (p-Ser423/425) assay, GDF8-stimulated cells (GDF pSMAD). It counts as cell-based. The note with it: Mus musculus, MPC-11, GDF8-stimulated pSMAD3, MPC11; tested as the salt form given; read-out: GDF pSMAD (MPC11) (μM), inhibition of GDF8 signaling.
For the compound `Nc1ncnc2ccc(-c3cc(F)cnc3-c3cccc(O)c3)cc12` [compound 1000, 3-(3-(4-aminoquinazolin-6-yl)-5-fluoropyridin-2-yl)phenol], the IC50 is 6.5 µM.

Consider `Nc1ncnc2ccc(-c3cccnc3-c3cc(C(F)F)ccc3F)cc12` [compound 1023, 6-(2-(5-(difluoromethyl)-2-fluorophenyl)pyridin-3-yl)quinazolin-4-amine], for which the IC50 was determined as 0.0958 µM.

Staying with this assay, now noted: Mus musculus, MPC-11, MPC11; GDF8-stimulated; p-SMAD3 AlphaScreen; read-out: GDF pSMAD (MPC11) (inhibition of GDF8 signaling).
As to `COc1cc(CNc2cnc(-c3ccc(F)c(C)c3)c(-c3ccc4ncsc4c3)c2)cc(O)c1OC` [compound 367, 5-(((5-(Benzo[d]thiazol-6-yl)-6-(4-fluoro-3-methylphenyl)pyridin-3-yl)amino)methyl)-2,3-dimethoxyphenol], the IC50 is 0.28 µM.

On to `Cc1cc(-c2ncccc2-c2ccc3ncnc(Nc4ccc(C(N)=O)cc4)c3c2)ccc1F` [compound 406, 4-((6-(2-(4-Fluoro-3-methylphenyl)pyridin-3-yl)quinazolin-4-yl)amino)benzamide], for which the IC50 was 2.79 µM.

Turning to `Cc1cccc(-c2ncccc2-c2ccc3ncc(C(=O)NCCCN4CCCC4=O)n3c2)c1` [compound 724, N-(3-(2-Oxopyrrolidin-1-yl)propyl)-6-(2-(m-tolyl)pyridin-3-yl)imidazo[1,2-a]pyridine-3-carboxamide], the IC50 turned out to be 0.537 µM.

As for `N#Cc1cnc2ccc(-c3cccnc3-c3ccc(F)c(Cl)c3)cn12` [compound 689, 6-(2-(3-Chloro-4-fluorophenyl)pyridin-3-yl)imidazo[1,2-a]pyridine-3-carbonitrile], the IC50 stood at 0.516 µM.

Regarding `c1cc(-c2ncccc2-c2ccc3ncc(N4CCCC4)n3c2)cc(C2CC2)c1` [compound 563, 6-(2-(3-Cyclopropylphenyl)pyridin-3-yl)-3-(pyrrolidin-1-yl)imidazo[1,2-a]pyridine], the IC50 amounted to 5.2 µM.

`Cc1cc(-c2ncccc2-c2ccc3ncc(C(C)O)n3c2)ccc1F` (racemic) [compound 598, rac-1-(6-(2-(4-Fluoro-3-methylphenyl)pyridin-3-yl)imidazo[1,2-a]pyridin-3-yl)ethan-1-ol]: the IC50 is 2.05 µM.

As to `Cc1ccc(F)c(-c2ncccc2-c2ccc3ncnn3c2)c1` [compound 748, 6-(2-(2-Fluoro-5-methylphenyl)pyridin-3-yl)-[1,2,4]triazolo[1,5-a]pyridine], the IC50 was determined as 0.447 µM.

Consider `Fc1cccc(-c2ncccc2-c2ccc3cn[nH]c3c2)c1` [Compound 100, 6-(2-(3-Fluorophenyl)pyridin-3-yl)-1H-indazole], for which the IC50 came to 6.03 µM.

For the compound `Cc1cc(-c2nc(N)ccc2-c2ccc3[nH]ncc3c2)ccc1F` [Compound 21, 6-(4-Fluoro-3-methylphenyl)-5-(1H-indazol-5-yl)pyridin-2-amine], the IC50 turned out to be 1.92 µM.

Regarding `Cc1ccc(CNc2cnc(-c3ccc(F)c(C)c3)c(-c3ccc4ncsc4c3)c2)cn1` [compound 334, 5-(Benzo[d]thiazol-6-yl)-6-(4-fluoro-3-methylphenyl)-N-((6-methylpyridin-3-yl)methyl)pyridin-3-amine], the IC50 is 0.373 µM.

As for `Cn1cnc2ccc(-c3cccnc3-c3cc(Cl)c(F)cc3F)cc21` [compound 784, 6-(2-(5-Chloro-2,4-difluorophenyl)pyridin-3-yl)-1-methyl-1H-benzo[d]imidazole], the IC50 came to 0.125 µM.

In the case of `Fc1ccc(-c2ncccc2-c2ccc3nccn3c2)cc1C1CC1` [compound 218, 6-(2-(3-Cyclopropyl-4-fluorophenyl)pyridin-3-yl)imidazo[1,2-a]pyridine], the IC50 worked out at 0.446 µM.

In the case of `Cc1cc(-c2ncccc2-c2ccc3ncc(C(=O)NCCCN4CCCC4=O)n3c2)ccc1F` [compound 612, 6-(2-(4-Fluoro-3-methylphenyl)pyridin-3-yl)-N-(3-(2-oxopyrrolidin-1-yl)propyl)imidazo[1,2-a]pyridine-3-carboxamide], the IC50 came to 0.408 µM.

Take `Cc1cc(-c2ncccc2-c2ccc3ncc(C(=O)OC[C@@H](N)Cc4c[nH]c5ccccc45)n3c2)ccc1F` [compound 615, (S)-2-Amino-3-(1H-indol-3-yl)propyl 6-(2-(4-fluoro-3-methylphenyl)pyridin-3-yl)imidazo[1,2-a]pyridine-3-carboxylate formic acid salt]: the IC50 was determined as 2.13 µM.

As to `COc1ccc(CNc2cnc(-c3ccc(F)c(C)c3)c(-c3ccc4ncsc4c3)c2)cc1OCC(N)=O` [compound 352, 2-(5-(((5-(Benzo[d]thiazol-6-yl)-6-(4-fluoro-3-methylphenyl)pyridin-3-yl)amino)methyl)-2-methoxyphenoxy)acetamide], the IC50 stood at 0.307 µM.

As for `Fc1cc(Cl)cc(-c2ncccc2-c2ccc3ncnn3c2)c1` [compound 770, 6-(2-(3-Chloro-5-fluorophenyl)pyridin-3-yl)-[1,2,4]triazolo[1,5-a]pyridine], the IC50 was determined as 1.31 µM.

As to `Fc1cccc(-c2ncccc2-c2ccc3ncsc3c2)c1F` [compound 662, 6-(2-(2,3-Difluorophenyl)pyridin-3-yl)benzo[d]thiazole], the IC50 came to 9.64 µM.

Consider `COc1cc(-c2ncccc2-c2ccc3[nH]ncc3c2)ccc1F` [Compound 124, 5-(2-(4-Fluoro-3-methoxyphenyl)pyridin-3-yl)-1H-indazole], for which the IC50 was determined as 0.548 µM.

Take `Nc1ncnc2ccc(-c3cccnc3-c3cc(Cl)c(F)cc3F)cc12` [compound 450, 6-(2-(5-Chloro-2,4-difluorophenyl)pyridin-3-yl)quinazolin-4-amine]: the IC50 was found to be 0.136 µM.

Regarding `Nc1ncc2ccc(-c3cccnc3-c3ccc(F)c(Cl)c3)cc2n1` [compound 496, 7-(2-(3-Chloro-4-fluorophenyl)pyridin-3-yl)quinazolin-2-amine], the IC50 came to 0.783 µM.

`N#Cc1cccc(-c2ncccc2-c2ccc3nccn3c2)c1` [Compound 51, 3-(3-(Imidazo[1,2-a]pyridin-6-yl)pyridin-2-yl)benzonitrile]: the IC50 was 5.44 µM.

Take `Cc1ccc(Cl)c(-c2ncccc2-c2ccn3ncnc3c2)c1` [compound 876, 7-(2-(2-Chloro-5-methylphenyl)pyridin-3-yl)-[1,2,4]triazolo[1,5-a]pyridine]: the IC50 was found to be 2.37 µM.

Take `Nc1ncnc2ccc(-c3cccnc3-c3cccc(OCC4CC4)c3)cc12` [compound 483, 6-(2-(3-(Cyclopropylmethoxy)phenyl)pyridin-3-yl)quinazolin-4-amine]: the IC50 was 0.82 µM.

With `O=c1[nH]cnc2ccc(-c3cccnc3-c3cc(Cl)c(F)cc3F)cc12` [compound 823, 6-(2-(5-Chloro-2,4-difluorophenyl)pyridin-3-yl)quinazolin-4(3H)-one], the IC50 was found to be 0.214 µM.

Turning to `N#Cc1cccc(-c2ncccc2-c2ccc3ncsc3c2)c1` [compound 670, 3-(3-(Benzo[d]thiazol-6-yl)pyridin-2-yl)benzonitrile], the IC50 is 0.367 µM.

In the case of `O=C(NCCCN1CCCC1=O)c1cnc2ccc(-c3cccnc3-c3cccc(Cl)c3)cn12` [compound 726, 6-(2-(3-Chlorophenyl)pyridin-3-yl)-N-(3-(2-oxopyrrolidin-1-yl)propyl)imidazo[1,2-a]pyridine-3-carboxamide], the IC50 amounted to 0.565 µM.

For the compound `Cc1cc(-c2ncccc2-c2ccc3ncnc(OCCN4CCN(C)CC4)c3c2)ccc1F` [compound 433, 6-(2-(4-Fluoro-3-methylphenyl)pyridin-3-yl)-4-(2-(4-methylpiperazin-1-yl)ethoxy)quinazoline], the IC50 is 0.285 µM.
